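Tested at 5 concentrations; 48 h exposure; 96-well plates; endpoints linearly interpolated, else capped at highest concentration. GI50 marks 50% less growth. TGI: total growth inhibition.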
Columns and labels:
Assay in all cases: NCI-60 cell line screen, 48 h
[1] = test system: SK-MEL-2 melanoma
[2] = test system: UO-31 renal
[3] = test system: RPMI-8226 leukemia
[4] = test system: HOP-62 NSCLC
[5] = test system: HT29 colon
[6] = test system: HCC-2998 colon
[7] = test system: SK-MEL-5 melanoma
[8] = test system: SNB-19 CNS
[9] = test system: U251 CNS
[10] = test system: LOX IMVI melanoma
[11] = test system: NCI-H460 lung
[12] = test system: CCRF-CEM leukemia
[13] = test system: HL-60(TB) leukemia
[14] = test system: NCI/ADR-RES ovarian
[15] = test system: NCI-H226 lung
[16] = test system: CAKI-1 renal
[17] = test system: COLO 205 colon
[18] = test system: BT-549 breast
[19] = test system: SR leukemia
[20] = test system: MDA-MB-435
[21] = test system: PC-3 prostate
[22] = test system: HOP-92 NSCLC
[23] = test system: SF-539 CNS
[24] = test system: MDA-MB-231 breast
[25] = test system: SNB-75 CNS
[26] = test system: NCI-H522 lung
[27] = test system: SF-268 CNS
[28] = test system: IGROV1 ovarian
[29] = test system: SW-620 colon
[30] = test system: OVCAR-3 ovarian
[31] = test system: OVCAR-5 ovarian
[32] = test system: HCT-15 colon
[33] = test system: SF-295 CNS
[34] = test system: M14 melanoma
[35] = test system: A549 NSCLC
[36] = test system: UACC-257 melanoma
[37] = test system: OVCAR-8 ovarian
[38] = test system: 786-0 renal
[39] = test system: KM12 colon
[40] = test system: EKVX NSCLC
[41] = test system: UACC-62 melanoma
[42] = test system: MOLT-4 leukemia
[43] = test system: ACHN renal
[44] = test system: TK-10 renal
[45] = test system: K-562 leukemia
[46] = test system: DU-145 prostate
[47] = test system: NCI-H23 lung
[48] = test system: MALME-3M melanoma
[49] = test system: SN12C renal
[50] = test system: OVCAR-4 ovarian
[51] = test system: HCT-116 colon
[52] = test system: HS 578T breast
[53] = test system: SK-OV-3 ovarian
[54] = test system: MCF7 breast

`CCOC(=O)[C@@H](C)C[C@H](Cc1ccccc1)NC(=O)c1csc([C@@H](C[C@H](C(C)C)N(C)C(=O)[C@H](CC)NC(=O)[C@H]2CCCCN2C)OC(C)=O)n1` gave a GI50 [1] of less than 1.67 nM, a TGI [1] greater than 16700 nM and a GI50 [2] of 12.8 nM. For the same compound, the TGI [2] was greater than 16700 nM, the GI50 [3] was less than 1.67 nM and the TGI [3] was greater than 16700 nM. For the same compound, the GI50 [4] was 3.67 nM, the TGI [4] was greater than 16700 nM and the GI50 [5] was less than 1.67 nM. It also gave a TGI [5] greater than 16700 nM, a GI50 [6] of 2.67 nM and a TGI [6] greater than 5640 nM. For the same compound, the GI50 [7] was less than 1.67 nM, the TGI [7] was 43.2 nM and the GI50 [8] was 1.99 nM. It also gave a TGI [8] greater than 16700 nM, a GI50 [9] of 3.1 nM and a TGI [9] greater than 16700 nM. It also gave a GI50 [10] of 8.42 nM, a TGI [10] greater than 16700 nM and a GI50 [11] of less than 1.67 nM. The TGI [11] was greater than 16700 nM, the GI50 [12] was 3.97 nM and the TGI [12] was greater than 16700 nM. It also gave a GI50 [13] of less than 1.67 nM, a TGI [13] of 11.4 nM and a GI50 [14] of 67.5 nM. The TGI [14] was greater than 15700 nM, the GI50 [15] was 3.35 nM and the TGI [15] was 102 nM. It also gave a GI50 [16] of less than 1.67 nM, a TGI [16] greater than 16700 nM and a GI50 [17] of less than 1.67 nM. It also gave a TGI [17] of 21.1 nM, a GI50 [18] of 3.68 nM and a TGI [18] of 143 nM. It also gave a GI50 [19] of less than 1.67 nM, a TGI [19] greater than 16700 nM and a GI50 [20] of less than 1.67 nM. It also gave a TGI [20] of 1.69 nM, a GI50 [21] of less than 1.67 nM and a TGI [21] greater than 16700 nM. For the same compound, the GI50 [22] was less than 1.67 nM, the TGI [22] was 236 nM and the GI50 [23] was 3.06 nM. For the same compound, the TGI [23] was 9.8 nM, the GI50 [24] was 3.23 nM and the TGI [24] was 308 nM. For the same compound, the GI50 [25] was less than 1.67 nM, the TGI [25] was greater than 16700 nM and the GI50 [26] was less than 1.67 nM. The TGI [26] was 362 nM, the GI50 [27] was less than 27 nM and the TGI [27] was greater than 16700 nM. It also gave a GI50 [28] of 1.93 nM, a TGI [28] greater than 16700 nM and a GI50 [29] of less than 1.67 nM. The TGI [29] was greater than 16700 nM, the GI50 [30] was less than 1.67 nM and the TGI [30] was 4.53 nM. The GI50 [31] was 10.8 nM, the TGI [31] was greater than 16700 nM and the GI50 [32] was 6.28 nM. For the same compound, the TGI [32] was greater than 16700 nM, the GI50 [33] was less than 1.67 nM and the TGI [33] was greater than 4030 nM. For the same compound, the GI50 [34] was 1.71 nM, the TGI [34] was 7.62 nM and the GI50 [35] was 4.15 nM. For the same compound, the TGI [35] was greater than 16700 nM, the GI50 [36] was greater than 16700 nM and the TGI [36] was greater than 16700 nM. It also gave a GI50 [37] of 4.34 nM, a TGI [37] greater than 16700 nM and a GI50 [38] of 3.87 nM. It also gave a TGI [38] greater than 16700 nM, a GI50 [39] of less than 1.67 nM and a TGI [39] greater than 16700 nM. It also gave a GI50 [40] of 4.84 nM, a TGI [40] greater than 16700 nM and a GI50 [41] of less than 1.67 nM. The TGI [41] was greater than 16700 nM, the GI50 [42] was 8.96 nM and the TGI [42] was greater than 16700 nM. It also gave a GI50 [43] of 1.96 nM, a TGI [43] greater than 16700 nM and a TGI [44] greater than 16700 nM. For the same compound, the GI50 [45] was less than 1.67 nM, the TGI [45] was greater than 16700 nM and the GI50 [46] was less than 1.67 nM. For the same compound, the TGI [46] was 253 nM, the GI50 [47] was 4.76 nM and the TGI [47] was greater than 16700 nM. It also gave a GI50 [48] of less than 1.67 nM, a TGI [48] greater than 16700 nM and a GI50 [49] of 5.15 nM. The TGI [49] was greater than 16700 nM, the GI50 [50] was 3.97 nM and the TGI [50] was greater than 16700 nM. The GI50 [51] was less than 1.67 nM, the TGI [51] was 1680 nM and the GI50 [52] was 4.05 nM. The TGI [52] was greater than 15500 nM, the GI50 [53] was less than 1.67 nM and the TGI [53] was greater than 16700 nM. For the same compound, the GI50 [54] was less than 1.67 nM and the TGI [54] was greater than 16700 nM.

Source: PubChem BioAssay (NCI)
